Test results: ChEMBL document CHEMBL1145537, “Combination of tigecycline and N-acetylcysteine reduces biofilm-embedded bacteria on vascular catheters” (Antimicrob Agents Chemother, 2007)
Calls of active or inactive are those of the source.

Assays:
Type in all cases: functional, organism-based
[1] = system: Staphylococcus epidermidis; assay: Antimicrobial activity against catheter-associated biofilm of methicillin-resistant Staphylococcus epidermidis
[2] = system: Staphylococcus aureus; assay: Antimicrobial activity against catheter-associated biofilm of methicillin-resistant Staphylococcus aureus
[3] = system: Klebsiella pneumoniae; assay: Antimicrobial activity against catheter-associated biofilm of Klebsiella pneumoniae
[4] = system: Staphylococcus epidermidis; assay: Antimicrobial activity against catheter-associated biofilm of methicillin-resistant Staphylococcus epidermidis assessed as reduction of CFU
[5] = system: Staphylococcus aureus; assay: Antimicrobial activity against catheter-associated biofilm of methicillin-resistant Staphylococcus aureus assessed as reduction of CFU
[6] = system: Staphylococcus aureus; assay: Antimicrobial activity against catheter-associated biofilm of methicillin-sensitive Staphylococcus aureus assessed as reduction of CFU
[7] = system: Acinetobacter baumannii; assay: Antimicrobial activity against catheter-associated biofilm of Acinetobacter baumannii assessed as reduction of CFU
[8] = system: Klebsiella pneumoniae; assay: Antimicrobial activity against catheter-associated biofilm of Klebsiella pneumoniae assessed as reduction of CFU

Measured: Activity

CC(=O)N[C@@H](CS)C(=O)O
active: [1] | [2] | [3]

CN(C)c1cc(NC(=O)CNC(C)(C)C)c(O)c2c1C[C@H]1C[C@H]3[C@H](N(C)C)C(O)=C(C(N)=O)C(=O)[C@@]3(O)C(O)=C1C2=O
active: [4] | [5] | [6] | [7] | [8]
